From PMC12444472, “BCI inhibits MKP3 by targeting the kinase-binding domain and disrupting ERK2 interaction” (The Journal of Biological Chemistry, 2025)
“Also recorded” adds a separate entry of the source.

What was measured:
MKP3^FL = biological target: T1, MKP3^FL (Homo sapiens, UniProt Q16828); assay: Phosphatase activity toward pERK2 (coupled MESG assay); type: biochemical; details: BCI at concentration 50 times that of pERK2
T1 construct: MKP3(1–381) (MKP3^FL); made in house; host or cells: Escherichia coli BL21(DE3)
T1 sequence (Q16828 1-381): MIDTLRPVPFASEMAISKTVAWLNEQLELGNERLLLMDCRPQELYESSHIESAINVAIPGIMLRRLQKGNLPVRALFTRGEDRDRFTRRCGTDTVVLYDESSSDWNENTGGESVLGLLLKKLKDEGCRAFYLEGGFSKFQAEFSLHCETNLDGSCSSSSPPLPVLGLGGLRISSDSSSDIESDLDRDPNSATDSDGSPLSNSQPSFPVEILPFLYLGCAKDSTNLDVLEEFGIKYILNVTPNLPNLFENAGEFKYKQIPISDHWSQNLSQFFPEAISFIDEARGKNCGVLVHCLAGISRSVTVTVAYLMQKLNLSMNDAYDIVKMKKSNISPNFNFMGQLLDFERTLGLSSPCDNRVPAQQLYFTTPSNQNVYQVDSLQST
Protocol: (§1) The phosphatase activity of MKP3 (0.5 μM) toward pERK2 (0.5 μM) was measured using a coupled assay, in which phosphate released from the substrate was transferred to 7-methyl-6-thioguanosine (MESG) by purine nucleoside phosphorylase. Assays were performed in a reaction mixture containing 50 mM Mops (pH 7.0), 100 mM NaCl, 0.1 mM EDTA, 100 μM MESG, 4 μM purine nucleoside phosphorylase, and varying concentrations of BCI, as indicated in Figure 5. Dephosphorylation was monitored by measuring absorbance changes at 360 nm, reflecting the conversion of MESG to 7-methyl-6-thioguanine in the presence of inorganic phosphate. Phosphate quantification was performed using an extinction coefficient of 11,200 M^-1 cm^-1 at 360 nm.
(§2) Stock solutions of BCI (dissolved in DMSO) at different concentrations were prepared to maintain a constant DMSO concentration across all BCI concentrations in the phosphatase inhibition assays, thereby eliminating potential effects of varying DMSO levels on detection. Initial reaction rates were determined from the linear slope of progress curves, and the data were analyzed using nonlinear regression. Kinetic parameters (kcat and Km) were obtained by fitting the data to the Michaelis–Menten equation: v0 = kcat[E][S]/(Km + [S]). […]

MKP3^CD [1] = biological target: T2, MKP3^CD (Homo sapiens, UniProt Q16828); assay: as above; type: biochemical; details: initial velocities in absence and presence of BCI, n = 3
T2 construct: ^15N-labeled MKP3^1–154, MKP3^14–152, MKP3^204–350; made in house; host or cells: Escherichia coli BL21(DE3)
T2 sequence (Q16828 204-350): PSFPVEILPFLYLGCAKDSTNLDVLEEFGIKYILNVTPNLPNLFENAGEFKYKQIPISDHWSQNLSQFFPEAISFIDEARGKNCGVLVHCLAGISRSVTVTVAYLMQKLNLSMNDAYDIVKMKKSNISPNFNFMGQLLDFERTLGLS
Protocol: as §1, §2

MKP3^CD [2] = biological target: T2, MKP3^CD; assay: MST affinity measurement; type: binding
Protocol: (§3) MST measurements were performed using fluorescently labeled proteins and the inhibitor BCI (CAS: 1245792-51-1; TargetMol) on a Monolith instrument (NanoTemper Technologies). The RED–Tris–NTA second-generation dye was dissolved in MST buffer (20 mM Hepes, pH 7.4, 200 mM NaCl, and 0.05% Tween-20) to prepare a 5 μM stock solution. Fluorescent labeling of MKP proteins followed the standard protocol of the MO-L018 RED–Tris–NTA protein labeling kit, leveraging the His-tag–dye interaction.
(§4) The BCI compound was prepared as a 600 to 750 μM stock solution in MST buffer with 10% DMSO to enhance solubility, followed by a 16-point serial dilution. The diluted BCI solutions were thoroughly mixed with labeled MKP proteins (50 nM) at a 1:1 volume ratio, yielding a final volume of 10 μl. The reaction mixtures were incubated in the dark for 10 min at room temperature before being loaded into standard glass capillaries. Measurements were carried out on the Monolith instrument (100% LED, 40% IR laser power) with a 20 s laser on time. The normalized fluorescence values from triplicate measurements were averaged at each concentration and fitted to a 1:1 binding model using the KD model in MO.Affinity software (v3.0.5, NanoTemper Technologies) to determine the binding affinities between MKP proteins and the BCI inhibitor. […]

MKP5^CD = biological target: T3, MKP5^CD (Homo sapiens, UniProt Q9Y6W6); assay: MST affinity measurement; type: binding
T3 construct: MKP5(320–467) (MKP5^CD); made in house; host or cells: Escherichia coli BL21(DE3)
T3 sequence (Q9Y6W6 320-467): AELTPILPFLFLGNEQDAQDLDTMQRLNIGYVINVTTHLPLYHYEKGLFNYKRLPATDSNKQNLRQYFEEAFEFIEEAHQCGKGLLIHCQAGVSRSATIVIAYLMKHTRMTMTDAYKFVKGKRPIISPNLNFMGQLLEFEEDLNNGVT
Protocol: as §3, §4

- extension of pERK2 dephosphorylation time (MKP3^FL): more than 20 fold
- effect on MKP3^CD activity toward pERK2 (MKP3^CD [1]): no effect
- binding by MST (MKP5^CD): no interaction was detected
SMILES: O=C1/C(=C/c2ccccc2)C(NC2CCCCC2)c2ccccc21 (stereo not shown) [BCI, (E)-2-benzylidene-3-(cyclohexylamino)-2,3-dihydro-1H-inden-1-one]
- binding by MST (MKP3^CD [2]): no detectable binding; also recorded: no binding was detected
